Values quoted from earlier work, collected in patent publication US9168282B2, “Method for treating neuronal damage and neurological diseases” (priority 2009, dated 2015).

What was measured:
herpes zoster patients [1] = details: Famciclovir 500 mg three times per day, 7 days, meta-analysis data (Can Fam Physician 2008)
herpes zoster patients [2] = details: 500 mg of Famciclovir three times per day, 7 days, meta-analysis data (Can Fam Physician 2008)

CC(=O)OCC(CCn1cnc2cnc(N)nc21)COC(C)=O [Famciclovir]
Median of time required for relieving pain (herpes zoster patients [1]): 20 days | Median of time required for generating scab over the whole skin lesion (herpes zoster patients [2]): 5 days
